Data as given in patent publication US20120064072A1, “Combination Cancer Therapy Comprising Administration of an EGFR Inhibitor and an IGF-1R Inhibitor” (priority 2009, published 2012).

Assays:
[1] = tested on: H292 (NSCLC) human tumor xenograft; assay: Treatment beyond progression (TBP), H292 xenograft model; assay type: in vivo, mice
Description: Anti-tumor efficacy was evaluated using mouse xenograft tumor models derived from GEO and H292 cells. Female athymic nude nu/nu CD-1 mice (6-8 wks, 22-29 g) were obtained from Charles River Laboratories (Wilmington, Mass.). Animals were allowed to acclimate for a minimum of one week prior to initiation of a study. Throughout the studies, animals were allowed sterile rodent chow and water ad libitum, and immunocompromised animals were maintained under specific pathogen free conditions. […] Tumor cells were harvested from cell culture flasks during exponential cell growth, washed twice with sterile PBS, counted and resuspended in PBS to a suitable concentration before s.c. implantation on the right flank of female nu/nu CD-1 mice. Tumors were established to 200+/−50 mm^3 in size before randomization into treatment groups of 8 mice each. Body weights were determined twice weekly along with tumor volume {V=[length×(width)^2]/2} measurements using Vernier calipers during the study. Tumor growth inhibition (% TGI) was determined by the following formula: % TGI={1−[(Tt/T0)/(Ct/C0)]/1-[C0/Ct]}×100. Tt is tumor volume of treated at time t; T0 is tumor volume of treated at time 0; Ct is tumor volume of control at time t; and C0 is tumor volume of control at time 0. […] Furthermore, we evaluated the effect of drug treatment on tumor growth delay (GD or T-C value), defined as the difference in time (days) required for the treated tumors (T) to reach 400% of the initial tumor volume compared with those of the control group (C). […] At the time of tumor progression on single agent erlotinib treatment mice were randomized into additional study groups of 8 mice each. Individual tumor volumes were calculated, as stated above, for all mice throughout the study and the time in days until each mouse doubled its tumor volume from the time of re-randomization was determined by linear regression analysis of the entire data set. Statistical evaluation of the data was determined by Kaplan-Meier Survival analysis.
In two separate experiments (FIGS. 9-11 and FIGS. 13-15), NCI-H292 cells were harvested from cell culture flasks during exponential cell growth, washed twice with sterile PBS, counted and resuspended in PBS to a suitable concentration before s.c. implantation on the right flank of female nu/nu CD-1 mice. Tumors were established to 200+/−50 mm^3 in size before randomization into vehicle control or erlotinib treatment groups.

[2] = tested on: H292 (NSCLC) human tumor xenograft; assay: Frontline combination treatment, H292 xenograft model; assay type: in vivo, mice; conditions: by 100 days
Description: Anti-tumor efficacy was evaluated using mouse xenograft tumor models derived from GEO and H292 cells. Female athymic nude nu/nu CD-1 mice (6-8 wks, 22-29 g) were obtained from Charles River Laboratories (Wilmington, Mass.). Animals were allowed to acclimate for a minimum of one week prior to initiation of a study. Throughout the studies, animals were allowed sterile rodent chow and water ad libitum, and immunocompromised animals were maintained under specific pathogen free conditions. […] Tumor cells were harvested from cell culture flasks during exponential cell growth, washed twice with sterile PBS, counted and resuspended in PBS to a suitable concentration before s.c. implantation on the right flank of female nu/nu CD-1 mice. […] Body weights were determined twice weekly along with tumor volume {V=[length×(width)^2]/2} measurements using Vernier calipers during the study. Tumor growth inhibition (% TGI) was determined by the following formula: % TGI={1−[(Tt/T0)/(Ct/C0)]/1-[C0/Ct]}×100. […] Furthermore, we evaluated the effect of drug treatment on tumor growth delay (GD or T-C value), defined as the difference in time (days) required for the treated tumors (T) to reach 400% of the initial tumor volume compared with those of the control group (C). […] Statistical evaluation of the data was determined by Kaplan-Meier Survival analysis.

[3] = tested on: GEO (CRC) human tumor xenograft; assay: Treatment beyond progression (TBP), GEO xenograft model; assay type: in vivo, mice; conditions: after progression on 18 days erlotinib, erlotinib maintenance 100 mg/kg per day, or with OSI-906 15 mg/kg per day added, FIG. 4
Description: The H292 (NSCLC) and GEO (CRC) human tumor xenograft models were used to evaluate the efficacy of EGFR inhibitor (erlotinib) maintenance therapy with and without the addition of IGF-1R inhibitor (OSI-906) therapy following response and subsequent progression on erlotinib monotherapy.
Anti-tumor efficacy was evaluated using mouse xenograft tumor models derived from GEO and H292 cells. Female athymic nude nu/nu CD-1 mice (6-8 wks, 22-29 g) were obtained from Charles River Laboratories (Wilmington, Mass.). Animals were allowed to acclimate for a minimum of one week prior to initiation of a study. […] Tumor cells were harvested from cell culture flasks during exponential cell growth, washed twice with sterile PBS, counted and resuspended in PBS to a suitable concentration before s.c. implantation on the right flank of female nu/nu CD-1 mice. […] Body weights were determined twice weekly along with tumor volume {V=[length×(width)^2]/2} measurements using Vernier calipers during the study. Tumor growth inhibition (% TGI) was determined by the following formula: % TGI={1−[(Tt/T0)/(Ct/C0)]/1-[C0/Ct]}×100. […] Furthermore, we evaluated the effect of drug treatment on tumor growth delay (GD or T-C value), defined as the difference in time (days) required for the treated tumors (T) to reach 400% of the initial tumor volume compared with those of the control group (C). […]

Akt [4] = assay: GEO model Western blot analysis; assay type: in vivo, human; conditions: erlotinib 100 mg/kg per day eighteen days, FIG. 2
Description: (§1) In untreated GEO tumors and tumors treated with erlotinib (100 mg/kg per day) for eighteen days, the levels of total and phosphorylated Akt and Erk were measured and quantitated in terms of the ratio of phosphor to total protein in each sample and then plotted as compared to levels observed in vehicle control treated tumors (assumed to be 100%).

Erk [5] = assay: GEO model Western blot analysis; assay type: in vivo, human; conditions: erlotinib 100 mg/kg per day eighteen days, FIG. 2
Description: as §1

pIGF-1R [6] = assay: RTK array analysis, H292 model; assay type: in vivo, human; conditions: H292 tumors, erlotinib 100 mg/kg per day eighteen days, progressor tumors vs untreated or non-progressor; FIG. 5
Description: (§2) In untreated H292 tumors and tumors treated with erlotinib (100 mg/kg per day) for eighteen days, the levels of pIGF-1R and pIR were measured in terms of pixel density normalized to phosphotyrosine loading control, as shown in FIG. 5. Tumors that initially responded and then progressed (progressor) show upregulation of both pIGF-1R and pIR as compared to untreated tumors or tumors that continue to respond to erlotinib treatment (non-progressor).

pIR [7] = assay: RTK array analysis, H292 model; assay type: in vivo, human; conditions: H292 tumors, erlotinib 100 mg/kg per day eighteen days, progressor tumors vs untreated or non-progressor; FIG. 5
Description: as §2

Akt [8] = assay: H292 model Western blot analysis; assay type: in vivo, human; conditions: H292, erlotinib 100 mg/kg per day eighteen days, FIG. 6
Description: as §1, with “H292” for “GEO”

Erk [9] = assay: H292 model Western blot analysis; assay type: in vivo, human; conditions: H292, erlotinib 100 mg/kg per day eighteen days, FIG. 6
Description: as §1, with “H292” for “GEO”

pIGF-1R [10] = assay: RTK array analysis, GEO model; assay type: in vivo, human; conditions: erlotinib 100 mg/kg per day for eighteen days, all treated tumors, FIG. 1
Description: (§3) In untreated GEO tumors and tumors treated with erlotinib (100 mg/kg per day) for eighteen days, the levels of pEGFR, pIGF-1R, and pIR were measured in terms of median pixel density, as shown in FIG. 1.

pIR [11] = assay: RTK array analysis, GEO model; assay type: in vivo, human; conditions: erlotinib 100 mg/kg per day for eighteen days, all treated tumors, FIG. 1
Description: as §3

[12] = OSI-906 50 mg/kg per day after taking off erlotinib
[13] = tumors that do not progress on treatment
[14] = tumors that respond and then progress on treatment

Structure (SMILES) | time to tumor doubling, switching to OSI-906 single agent versus maintaining erlotinib single agent [1, 12] | time to two tumor doublings, switching to OSI-906 single agent versus maintaining erlotinib single agent [1, 12] | mice that doubled their tumor volumes twice [2] | median time to one doubling ([1]; first trial, FIG. 10, Kaplan-Meier, after 28 days erlotinib 100 mg/kg per day, combination = erlotinib + OSI-906 15 or 10 mg/kg) | median time to two doublings ([1]; first trial, FIG. 11, Kaplan-Meier, combination = erlotinib + OSI-906 15 or 10 mg/kg) | median time to one doubling ([1]; second trial, FIG. 14, Kaplan-Meier) | median time to two doublings ([1]; second trial, FIG. 15, Kaplan-Meier) | median time to tumor doubling following the re-sorting [3] | phospho to total Akt versus vehicle control (Akt [4]; [13]) | phospho to total Akt versus vehicle control (Akt [4]; [14]) | phospho to total Erk versus vehicle control (Erk [5]; [13]) | phospho to total Erk versus vehicle control (Erk [5]; [14]) | level of pIGF-1R (pixel density normalized to phosphotyrosine loading control) (pIGF-1R [6]) | level of pIR (pixel density normalized to phosphotyrosine loading control) (pIR [7]) | phospho to total Akt versus vehicle control (Akt [8]; [13]) | phospho to total Akt versus vehicle control (Akt [8]; [14]) | phospho to total Erk versus vehicle control (Erk [9]; [13]) | phospho to total Erk versus vehicle control (Erk [9]; [14]) | level of pIGF-1R (median pixel density) compared to untreated tumors (pIGF-1R [10]) | level of pIR (median pixel density) compared to untreated tumors (pIR [11])
C[C@]1(O)C[C@@H](c2nc(-c3ccc4ccc(-c5ccccc5)nc4c3)c3c(N)nccn32)C1 [OSI-906, cis-3-[8-amino-1-(2-phenyl-quinolin-7-yl)-imidazo[1,5-a]pyrazin-3-yl]-1-methyl-cyclobutanol] | no statistical difference | no statistical difference |  |  |  |  |  |  |  |  |  |  |  |  |  |  |  |  |  | 
C#Cc1cccc(Nc2ncnc3cc(OCCOC)c(OCCOC)cc23)c1 [erlotinib, [6,7-bis(2-methoxyethoxy)-4-quinazolin-4-yl]-(3-ethynylphenyl)amine] |  |  | 7 of 8 | 20.9 days | 41.5 days | 20.9 days | 45.8 days | about 28 days | continued inhibition | no longer inhibiting | continued inhibition | no longer inhibiting | upregulation | upregulation | continued inhibition | no longer inhibiting | continued inhibition | no longer inhibiting | upregulation | upregulation
